In this test the test system is BDF1 mice, P388 leukemia ip, median survival T/C. Kind of test: NCI In Vivo Anticancer Drug Screen. Data for tumor model P388 Leukemia (intraperitoneal) in B6D2F1 (BDF1) mice. Conditions: endpoint: median survival time, higher = longer survival. The method in brief:
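Vehicle-dosed animals serve as the reference; survival of compound-dosed, tumour-implanted mice is divided by it.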

The mark [1] stands for this setting: dose: 50.0 mg/kg/injection, schedule: Q01DX009 (ip), vehicle: Klucel (hydroxypropylcellulose) (HPC).
Setting [2] is: dose: 100.0 mg/kg/injection, schedule: Q01DX009 (ip), vehicle: Klucel (hydroxypropylcellulose) (HPC).
[3] abbreviates: dose: 100.0 mg/kg/injection, schedule: Q04DX003 (ip), vehicle: Klucel (hydroxypropylcellulose) (HPC).
The mark [4] stands for this setting: dose: 200.0 mg/kg/injection, schedule: Q04DX003 (ip), vehicle: Klucel (hydroxypropylcellulose) (HPC).
Where [5] appears, read: dose: 50.0 mg/kg/injection, schedule: Q01DX009 (ip), vehicle: saline with Tween-80.
Setting [6] is: dose: 100.0 mg/kg/injection, schedule: Q01DX009 (ip), vehicle: saline with Tween-80.
Where [7] appears, read: dose: 100.0 mg/kg/injection, schedule: Q04DX003 (ip), vehicle: saline with Tween-80.
Setting [8] is: dose: 200.0 mg/kg/injection, schedule: Q04DX003 (ip), vehicle: saline with Tween-80.
The mark [9] stands for this setting: dose: 200.0 mg/kg/injection, schedule: Q01DX009 (ip), vehicle: saline with Tween-80.
Setting [10] is: dose: 400.0 mg/kg/injection, schedule: Q04DX003 (ip), vehicle: Klucel (hydroxypropylcellulose) (HPC).

Each structure is given as a SMILES string. Values joined by “and” are separate entries in the source; they are usually repeats but may differ in a detail not shown here. Identical values can stand only once. Toxic doses and inconclusive results are not listed.

`O=[N+]([O-])c1cccnc1Cl`: the T/C is 91 % of control under setting [1]; 100 % of control under setting [2]; 104 % of control under setting [3]; 91 % of control (dose: 200.0 mg/kg/injection, schedule: Q01DX009 (ip), vehicle: Klucel (hydroxypropylcellulose) (HPC)); 100 % of control under setting [4].

As for `O=S(=O)(c1ccccc1)N1CN2CCN(C2)C1`, the T/C is 107 % of control under setting [5] and 124 % of control under setting [6].

In the case of `O=C(Nc1ccc(NC(=O)Nc2cccc(C3=NCCCN3)c2)cc1)Nc1ccc(C2=NCCCN2)cc1`, the T/C is 154 % of control (dose: 6.6 mg/kg/injection, schedule: Q01DX009 (ip), vehicle: saline with Tween-80) and 181 % of control (dose: 10.0 mg/kg/injection, schedule: Q01DX009 (ip), vehicle: saline with Tween-80).

On to `O=C1C=C/C(=N/S(=O)(=O)c2ccccc2)c2ccccc21`, for which the T/C is, setting by setting: (dose: 0.37 mg/kg/injection, schedule: Q01DX009 (ip), vehicle: DMSO) 100 % of control; (dose: 0.75 mg/kg/injection, schedule: Q01DX009 (ip), vehicle: DMSO) 100 % of control; (dose: 1.5 mg/kg/injection, schedule: Q01DX009 (ip), vehicle: DMSO) 100 % of control; (dose: 12.0 mg/kg/injection, schedule: Q01DX009 (ip), vehicle: DMSO) 92 % of control; (dose: 25.0 mg/kg/injection, schedule: Q04DX003 (ip), vehicle: DMSO) 91 % of control; (dose: 50.0 mg/kg/injection, schedule: Q04DX003 (ip), vehicle: DMSO) 104 % of control. Also, the T/C (dose: 100.0 mg/kg/injection, schedule: Q04DX003 (ip), vehicle: DMSO) is 100 % of control.

Turning to `C/C=C(\C)C(=O)OC1C(C)C2(O)C(C=C(CO)CC3(O)C(=O)C(C)=CC32)C2C(C)(C)C12OC(=O)CCCCCCCCC` (stereo not drawn), the T/C by setting is: (dose: 0.01 mg/kg/injection, schedule: Q01DX009 (ip), vehicle: gum acacia) 98 % of control; (dose: 0.01 mg/kg/injection, schedule: Q01DX009 (ip), vehicle: saline + alcohol) 90 % of control; (dose: 0.01 mg/kg/injection, schedule: Q01DX009 (ip), vehicle: saline with Tween-80) 118 % of control; (dose: 0.02 mg/kg/injection, schedule: Q01DX009 (ip), vehicle: gum acacia) 93 % of control; (dose: 0.03 mg/kg/injection, schedule: Q01DX009 (ip), vehicle: Klucel (hydroxypropylcellulose) (HPC)) 110 % of control; (dose: 0.03 mg/kg/injection, schedule: Q01DX009 (ip), vehicle: gum acacia) 111 % of control. In addition, the T/C was 93 % of control and 108 % of control (dose: 0.03 mg/kg/injection, schedule: Q01DX009 (ip), vehicle: saline + alcohol); 112 % of control (dose: 0.06 mg/kg/injection, schedule: Q01DX009 (ip), vehicle: Klucel (hydroxypropylcellulose) (HPC)); 90 % of control and 108 % of control (dose: 0.06 mg/kg/injection, schedule: Q01DX009 (ip), vehicle: saline + alcohol); 112 % of control (dose: 0.12 mg/kg/injection, schedule: Q01DX009 (ip), vehicle: Klucel (hydroxypropylcellulose) (HPC)); 112 % of control (dose: 0.25 mg/kg/injection, schedule: Q01DX009 (ip), vehicle: Klucel (hydroxypropylcellulose) (HPC)); 163 % of control (dose: 0.25 mg/kg/injection, schedule: Q01DX009 (ip), vehicle: saline + alcohol). Further, the T/C (dose: 0.5 mg/kg/injection, schedule: Q01DX009 (ip), vehicle: Klucel (hydroxypropylcellulose) (HPC)) is 119 % of control and the T/C (dose: 1.0 mg/kg/injection, schedule: Q01DX009 (ip), vehicle: Klucel (hydroxypropylcellulose) (HPC)) was 91 % of control.

Regarding `Cc1ccc(CNc2ccc(F)cc2)cc1`, the T/C reads like this: (dose: 100.0 mg/kg/injection, schedule: Q01DX009 (ip), vehicle: other) 100 % of control; under setting [7], 95 % of control; (dose: 178.0 mg/kg/injection, schedule: Q01DX009 (ip), vehicle: other) 100 % of control; (dose: 200.0 mg/kg/injection, schedule: Q01DX009 (ip), vehicle: other) 95 % of control; under setting [8], 104 % of control; (dose: 266.0 mg/kg/injection, schedule: Q01DX009 (ip), vehicle: other) 109 % of control. The T/C was 104 % of control (dose: 400.0 mg/kg/injection, schedule: Q01DX009 (ip), vehicle: other) and 100 % of control (dose: 400.0 mg/kg/injection, schedule: Q04DX003 (ip), vehicle: saline with Tween-80).

For `CC1CCCC[N-]1.CC1CCCC[N-]1.[Cl][Pt+2][Cl]` (stereo not drawn), the T/C under setting [1] was 103 % of control and the T/C under setting [2] is 97 % of control.

For the compound `COc1cc(/C=N\Nc2ccccc2[N+](=O)[O-])cc(OC)c1OC`, the T/C is 95 % of control under setting [6]; 104 % of control under setting [9]; 104 % of control (dose: 400.0 mg/kg/injection, schedule: Q01DX009 (ip), vehicle: saline with Tween-80).

For the compound `Oc1cc(OCCCc2ccc(F)cc2)cc2ccc3ccccc3c12`, the T/C reads like this: under setting [7], 112 % of control; under setting [8], 86 % of control.

As to `Cc1ccnc(NS(=O)(=O)c2ccc(N=Nc3nc4[nH]c(N)nc(=S)c4[nH]3)cc2)n1`, the T/C by setting is: (dose: 1.56 mg/kg/injection, schedule: Q01DX009 (ip), vehicle: Klucel (hydroxypropylcellulose) (HPC)) 151 % of control; (dose: 3.12 mg/kg/injection, schedule: Q01DX009 (ip), vehicle: Klucel (hydroxypropylcellulose) (HPC)) 112 % of control; (dose: 6.25 mg/kg/injection, schedule: Q01DX009 (ip), vehicle: Klucel (hydroxypropylcellulose) (HPC)) 108 % of control.

`C/C(=N\Nc1nc2ccccc2o1)c1ccncc1`: the T/C reads like this: under setting [4], 104 % of control; under setting [10], 86 % of control.

Regarding `Nc1n[nH]c(=S)n1-c1ccc(Cl)cc1`, the T/C is 100 % of control under setting [3], 104 % of control under setting [4] and 100 % of control under setting [10].

For `O=S(=O)(CCl)OCCCl`, the T/C runs as follows: (dose: 25.0 mg/kg/injection, schedule: Q01DX009 (ip), vehicle: saline with Tween-80) 123 % of control; under setting [5], 107 % of control; under setting [6], 214 % of control; under setting [9], 177 % of control.

As to `N#CC1CCCC1=O` (stereo not drawn), the T/C is 108 % of control (dose: 5.0 mg/kg/injection, schedule: Q01DX009 (ip), vehicle: saline) and 91 % of control (dose: 10.0 mg/kg/injection, schedule: Q01DX009 (ip), vehicle: saline).

As to `COC1C(O)C(OC2CCC3(C)C(CCC4C3CCC3(C)C(C5=CC(=O)OC5)CCC43O)C2)OC(C)C1OC(C)=O` (stereo not drawn), the T/C was 115 % of control (dose: 9.6 mg/kg/injection, schedule: Q01DX009 (ip), vehicle: saline with Tween-80); 108 % of control (dose: 22.0 mg/kg/injection, schedule: Q01DX009 (ip), vehicle: saline with Tween-80); 100 % of control (dose: 33.0 mg/kg/injection, schedule: Q01DX009 (ip), vehicle: saline with Tween-80).

Regarding `COc1ccc(N2CSC(=S)N(c3ccc(OC)cc3)C2)cc1`, the T/C by setting is: (dose: 100.0 mg/kg/injection, schedule: Q01DX001 (ip), vehicle: Klucel (hydroxypropylcellulose) (HPC)) 100 % of control; under setting [3], 95 % of control; (dose: 100.0 mg/kg/injection, schedule: Q04DX003 (ip), vehicle: saline) 87 % of control; (dose: 200.0 mg/kg/injection, schedule: Q01DX001 (ip), vehicle: Klucel (hydroxypropylcellulose) (HPC)) 87 % of control; under setting [4], 91 % of control; (dose: 400.0 mg/kg/injection, schedule: Q01DX001 (ip), vehicle: Klucel (hydroxypropylcellulose) (HPC)) 95 % of control. The T/C is, setting by setting: under setting [10], 104 % of control; (dose: 400.0 mg/kg/injection, schedule: Q04DX003 (ip), vehicle: saline) 100 % of control.

`Cc1cc(Sc2ccc(Cl)cc2)nc(Sc2ccc(Cl)cc2)c1C#N`: the T/C is, setting by setting: (dose: 50.0 mg/kg/injection, schedule: Q01DX005 (ip), vehicle: saline with Tween-80) 94 % of control; (dose: 100.0 mg/kg/injection, schedule: Q01DX005 (ip), vehicle: saline with Tween-80) 88 % of control; (dose: 200.0 mg/kg/injection, schedule: Q01DX005 (ip), vehicle: saline with Tween-80) 91 % of control.

The record behind these values is PubChem BioAssay AID328 (DTP/NCI, 2004).
